According to ChEMBL document CHEMBL5634096, “Design, synthesis and bioevaluation of PI3Kα-selective inhibitors as potential colorectal cancer drugs” (Eur J Med Chem, 2023):
pIC50: −log10 of the molar value.

Tests used:
[1] = target: Phosphatidylinositol 4,5-bisphosphate 3-kinase catalytic subunit alpha isoform (Homo sapiens, UniProt P42336); assay: Inhibition of PI3Kalpha (unknown origin) by ADP-Glo luminescent kinase assay
MCF7 = assay: Antiproliferative activity against human MCF7 cells assessed as reduction in cell viability incubated for 24 to 48 hrs by CCK-8 assay; type: functional, cell-based
SW-620 = assay: Antiproliferative activity against human SW-620 cells assessed as reduction in cell viability incubated for 24 to 48 hrs by CCK-8 assay; type: functional, cell-based
MDA-MB-231 = assay: Antiproliferative activity against human MDA-MB-231 cells assessed as reduction in cell viability incubated for 24 to 48 hrs by CCK-8 assay; type: functional, cell-based
HCT-116 = assay: Antiproliferative activity against human HCT-116 cells assessed as reduction in cell viability incubated for 24 to 48 hrs by CCK-8 assay; type: functional, cell-based
[2] = target: T1, Phosphatidylinositol 4,5-bisphosphate 3-kinase catalytic subunit delta isoform (Homo sapiens, UniProt O00329); assay: Inhibition of PI3Kdelta (unknown origin) by ADP-Glo luminescent kinase assay
T1 sequence (O00329 whole entry): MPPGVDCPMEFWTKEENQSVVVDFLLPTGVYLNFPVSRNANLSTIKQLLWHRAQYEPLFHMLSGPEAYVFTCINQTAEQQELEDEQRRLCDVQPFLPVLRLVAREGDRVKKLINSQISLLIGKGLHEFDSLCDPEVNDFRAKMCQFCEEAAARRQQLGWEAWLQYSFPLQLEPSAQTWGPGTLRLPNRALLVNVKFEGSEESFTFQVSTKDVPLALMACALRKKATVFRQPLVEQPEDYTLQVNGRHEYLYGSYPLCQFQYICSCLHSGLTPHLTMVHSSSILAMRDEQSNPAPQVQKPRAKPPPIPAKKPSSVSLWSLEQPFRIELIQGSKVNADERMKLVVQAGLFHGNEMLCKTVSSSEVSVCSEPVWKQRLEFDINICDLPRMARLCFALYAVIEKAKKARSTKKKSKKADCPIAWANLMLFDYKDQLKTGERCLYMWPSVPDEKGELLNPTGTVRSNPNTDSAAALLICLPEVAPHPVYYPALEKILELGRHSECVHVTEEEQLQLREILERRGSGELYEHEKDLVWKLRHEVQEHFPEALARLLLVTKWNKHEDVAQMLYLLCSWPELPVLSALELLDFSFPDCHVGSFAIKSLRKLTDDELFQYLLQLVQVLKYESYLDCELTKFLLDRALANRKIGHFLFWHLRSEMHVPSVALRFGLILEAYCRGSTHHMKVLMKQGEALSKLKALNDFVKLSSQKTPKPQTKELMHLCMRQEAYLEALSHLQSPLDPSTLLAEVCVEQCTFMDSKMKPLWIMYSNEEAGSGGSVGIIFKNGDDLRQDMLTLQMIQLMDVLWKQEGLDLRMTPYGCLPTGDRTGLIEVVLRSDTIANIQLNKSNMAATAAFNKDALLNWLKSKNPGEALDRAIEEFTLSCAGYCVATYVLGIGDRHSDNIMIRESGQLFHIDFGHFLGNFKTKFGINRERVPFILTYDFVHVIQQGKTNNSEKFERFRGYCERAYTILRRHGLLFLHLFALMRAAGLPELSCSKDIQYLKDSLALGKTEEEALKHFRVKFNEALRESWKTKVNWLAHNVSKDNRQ

[3] = target: Phosphatidylinositol 4,5-bisphosphate 3-kinase catalytic subunit gamma isoform (Homo sapiens, UniProt P48736); assay: Inhibition of PI3Kgamma (unknown origin) by ADP-Glo luminescent kinase assay
[4] = target: Phosphatidylinositol 4,5-bisphosphate 3-kinase catalytic subunit beta isoform (Homo sapiens, UniProt P42338); assay: Inhibition of PI3Kbeta (unknown origin) by ADP-Glo luminescent kinase assay
Phosphatidylinositol 4,5-bisphosphate 3-kinase catalytic subunit beta isoform, sequence (P42338 whole entry, canonical isoform): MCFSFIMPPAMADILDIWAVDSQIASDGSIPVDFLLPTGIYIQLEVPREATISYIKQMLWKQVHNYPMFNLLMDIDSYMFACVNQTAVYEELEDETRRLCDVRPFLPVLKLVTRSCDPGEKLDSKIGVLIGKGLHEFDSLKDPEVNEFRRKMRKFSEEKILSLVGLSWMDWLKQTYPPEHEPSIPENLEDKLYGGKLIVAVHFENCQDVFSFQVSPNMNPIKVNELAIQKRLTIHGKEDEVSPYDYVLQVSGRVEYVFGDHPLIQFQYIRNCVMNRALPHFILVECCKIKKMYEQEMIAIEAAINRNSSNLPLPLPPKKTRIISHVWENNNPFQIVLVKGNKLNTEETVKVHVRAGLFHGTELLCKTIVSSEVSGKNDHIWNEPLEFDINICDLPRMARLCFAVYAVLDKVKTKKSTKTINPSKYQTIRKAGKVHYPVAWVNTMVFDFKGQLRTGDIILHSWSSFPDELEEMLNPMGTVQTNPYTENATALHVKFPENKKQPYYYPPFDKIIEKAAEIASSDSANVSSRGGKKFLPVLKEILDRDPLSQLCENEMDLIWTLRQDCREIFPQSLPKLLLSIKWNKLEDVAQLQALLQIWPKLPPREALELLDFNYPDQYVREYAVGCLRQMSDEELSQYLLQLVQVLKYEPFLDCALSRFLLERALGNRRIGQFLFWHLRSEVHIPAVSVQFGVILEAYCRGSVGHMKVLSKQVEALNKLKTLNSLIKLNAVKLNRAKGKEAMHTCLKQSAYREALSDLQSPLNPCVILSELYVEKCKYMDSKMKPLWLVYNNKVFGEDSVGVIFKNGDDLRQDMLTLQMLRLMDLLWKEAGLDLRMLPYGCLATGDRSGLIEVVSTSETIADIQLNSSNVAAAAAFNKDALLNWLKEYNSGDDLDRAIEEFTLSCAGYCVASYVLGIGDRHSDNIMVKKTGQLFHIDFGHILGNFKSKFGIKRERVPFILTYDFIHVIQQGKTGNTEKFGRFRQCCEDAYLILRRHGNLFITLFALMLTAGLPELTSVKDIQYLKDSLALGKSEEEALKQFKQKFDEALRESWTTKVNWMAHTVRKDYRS

Phosphatidylinositol 4,5-bisphosphate 3-kinase catalytic subunit alpha isoform, sequence (P42336 whole entry, canonical isoform): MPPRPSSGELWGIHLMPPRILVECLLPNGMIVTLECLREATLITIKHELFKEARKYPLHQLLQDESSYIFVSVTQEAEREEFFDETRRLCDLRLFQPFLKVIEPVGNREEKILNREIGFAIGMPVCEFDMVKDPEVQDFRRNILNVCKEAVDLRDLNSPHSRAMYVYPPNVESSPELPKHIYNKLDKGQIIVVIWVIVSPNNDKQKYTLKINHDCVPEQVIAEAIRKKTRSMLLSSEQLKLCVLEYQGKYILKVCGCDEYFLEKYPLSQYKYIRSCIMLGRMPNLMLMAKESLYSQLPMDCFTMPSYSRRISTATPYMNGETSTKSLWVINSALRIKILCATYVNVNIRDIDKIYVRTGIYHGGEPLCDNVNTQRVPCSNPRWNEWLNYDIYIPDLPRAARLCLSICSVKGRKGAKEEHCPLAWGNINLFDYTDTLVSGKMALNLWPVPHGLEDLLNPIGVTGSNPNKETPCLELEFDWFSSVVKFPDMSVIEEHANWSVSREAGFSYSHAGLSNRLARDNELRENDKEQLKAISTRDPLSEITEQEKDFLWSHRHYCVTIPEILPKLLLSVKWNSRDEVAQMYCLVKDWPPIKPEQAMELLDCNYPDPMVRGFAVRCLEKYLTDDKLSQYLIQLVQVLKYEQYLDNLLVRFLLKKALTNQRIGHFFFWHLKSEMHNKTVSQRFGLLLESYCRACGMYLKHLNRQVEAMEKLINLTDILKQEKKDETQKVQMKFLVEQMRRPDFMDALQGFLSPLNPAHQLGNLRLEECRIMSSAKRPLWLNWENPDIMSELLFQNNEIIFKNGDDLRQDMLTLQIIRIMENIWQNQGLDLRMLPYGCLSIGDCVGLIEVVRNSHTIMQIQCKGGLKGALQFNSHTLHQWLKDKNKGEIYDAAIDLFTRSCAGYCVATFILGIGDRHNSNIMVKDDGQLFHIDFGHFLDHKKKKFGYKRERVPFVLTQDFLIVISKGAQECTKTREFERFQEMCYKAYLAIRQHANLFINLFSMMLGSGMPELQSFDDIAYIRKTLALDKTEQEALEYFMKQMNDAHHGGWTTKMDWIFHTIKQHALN
Phosphatidylinositol 4,5-bisphosphate 3-kinase catalytic subunit gamma isoform, sequence (P48736 whole entry, canonical isoform): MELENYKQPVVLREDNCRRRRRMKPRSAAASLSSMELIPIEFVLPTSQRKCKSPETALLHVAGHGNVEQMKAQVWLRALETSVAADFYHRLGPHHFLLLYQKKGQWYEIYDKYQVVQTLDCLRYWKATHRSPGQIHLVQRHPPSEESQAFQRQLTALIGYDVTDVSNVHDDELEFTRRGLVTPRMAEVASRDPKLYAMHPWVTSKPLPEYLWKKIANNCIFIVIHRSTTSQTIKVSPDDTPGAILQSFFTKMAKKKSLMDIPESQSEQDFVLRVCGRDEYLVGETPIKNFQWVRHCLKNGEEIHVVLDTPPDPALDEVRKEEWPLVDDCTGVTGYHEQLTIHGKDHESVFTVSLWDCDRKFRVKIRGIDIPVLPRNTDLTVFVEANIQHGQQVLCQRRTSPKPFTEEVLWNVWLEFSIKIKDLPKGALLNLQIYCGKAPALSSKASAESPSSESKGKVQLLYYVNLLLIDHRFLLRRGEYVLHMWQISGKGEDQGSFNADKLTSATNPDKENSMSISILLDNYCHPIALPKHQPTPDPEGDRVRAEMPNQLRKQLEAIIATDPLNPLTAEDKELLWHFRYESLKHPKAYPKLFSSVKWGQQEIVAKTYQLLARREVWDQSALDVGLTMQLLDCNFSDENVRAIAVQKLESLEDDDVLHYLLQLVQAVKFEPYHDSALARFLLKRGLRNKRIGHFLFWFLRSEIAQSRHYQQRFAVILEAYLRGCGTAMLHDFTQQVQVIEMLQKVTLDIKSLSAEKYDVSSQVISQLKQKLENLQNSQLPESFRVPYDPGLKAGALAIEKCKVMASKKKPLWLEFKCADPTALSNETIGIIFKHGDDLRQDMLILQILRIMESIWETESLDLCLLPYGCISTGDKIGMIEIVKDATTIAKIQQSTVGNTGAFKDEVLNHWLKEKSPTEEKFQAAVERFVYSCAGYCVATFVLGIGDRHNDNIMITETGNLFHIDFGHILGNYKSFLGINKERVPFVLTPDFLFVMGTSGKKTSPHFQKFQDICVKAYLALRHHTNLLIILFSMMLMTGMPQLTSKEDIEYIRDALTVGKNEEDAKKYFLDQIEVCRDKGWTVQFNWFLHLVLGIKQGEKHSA

Row | pIC50 [1] | pIC50 (MCF7) | pIC50 (SW-620) | pIC50 (MDA-MB-231) | pIC50 (HCT-116) | pIC50 [2] | pIC50 [3] | pIC50 [4] | Compound
1 | < 5.00 |  |  |  |  |  |  |  | C[C@H](NC(=O)c1cnc2ccc(-c3ccc4oc(N)nc4c3)cn12)C(=O)O
2 | 7.59 |  |  |  |  |  |  |  | NC(=O)CNc1ncnc2ccc(-c3ccc4oc(N)nc4c3)cc12
3 | 8.06 | 5.23 | 4.87 | 4.97 | 5.10 |  |  |  | Nc1nc2cc(-c3ccc4ncc(C(=O)N5C[C@H]6OCCO[C@@H]6C5)n4c3)ccc2o1 (single isomer, unassigned)
4 | 6.22 |  |  |  |  |  |  |  | Nc1nc2cc(-c3ccc4ncc(N5C[C@@H]6OCCO[C@H]6C5)nc4c3)ccc2o1
5 | 7.73 | 4.72 | < 4.00 | 4.76 | 4.84 |  |  |  | Nc1nc2ccc(-c3ccc4ncc(C(=O)N5CCOC(CO)C5)n4c3)cc2o1 (single isomer, unassigned)
6 | 7.73 | < 4.00 | < 4.00 | < 4.00 | < 4.00 |  |  |  | C[C@H](Nc1ncnc2ccc(-c3ccc4oc(N)nc4c3)cc12)C(N)=O
7 | 7.95 | 4.73 | 5.08 | 4.74 | 5.11 |  |  |  | NC(=O)[C@H](Cc1ccccc1)NC(=O)c1cnc2ccc(-c3ccc4oc(N)nc4c3)cn12
8 | 7.97 | 4.82 | 4.96 | 4.91 | 5.22 |  |  |  | CN(C)C1CCN(C(=O)c2cnc3ccc(-c4ccc5oc(N)nc5c4)cn23)C1 (stereo unspecified)
9 | 5.01 |  |  |  |  |  |  |  | COC1CCN(C(=O)c2cnc3ccc(-c4ccc5oc(N)nc5c4)cn23)C1 (stereo unspecified)
10 | 7.74 | 5.66 | 4.92 | 4.60 | 5.00 |  |  |  | NC(=O)[C@@H]1CCCN1C(=O)c1cnc2ccc(-c3ccc4oc(N)nc4c3)cn12
11 | 5.45 | 4.83 | 4.54 | < 4.00 | < 4.00 |  |  |  | NC(=O)[C@H](Cc1ccc(O)cc1)NC(=O)c1cnc2ccc(-c3ccc4oc(N)nc4c3)cn12
12 | 6.97 |  |  |  |  |  |  |  | Nc1nc2cc(-c3ccc4ncc(NCC(=O)NO)nc4c3)ccc2o1
13 | 6.30 | 4.98 | 4.22 | 4.82 | 4.59 |  |  |  | C[C@H](Nc1cnc2ccc(-c3ccc4oc(N)nc4c3)cc2n1)C(N)=O
14 | 8.42 | 5.25 | 4.60 | 4.99 | 5.34 |  |  |  | NC(=O)CNc1cnc2ccc(-c3ccc4oc(N)nc4c3)cc2n1
15 | 6.09 | < 4.00 | < 4.00 | < 4.00 | < 4.00 |  |  |  | CCC(NC(=O)c1cnc2ccc(-c3ccc4oc(N)nc4c3)cn12)C(=O)OC (stereo unspecified)
16 | 6.86 |  |  |  |  |  |  |  | Nc1nc2cc(-c3ccc4ncc(C(=O)N5CCNCC5)n4c3)ccc2o1
17 | 5.78 |  |  |  |  |  |  |  | Nc1nc2cc(-c3ccc4nc(N5C[C@@H]6OCCO[C@@H]6C5)cnc4c3)ccc2o1
18 | 6.32 |  |  |  |  |  |  |  | NC(=O)CNc1cnc2cc(-c3ccc4oc(N)nc4c3)ccc2n1
19 | 7.71 | 4.79 | 4.42 | < 4.00 | 4.47 |  |  |  | NC(=O)C(NC(=O)c1cnc2ccc(-c3ccc4oc(N)nc4c3)cn12)c1ccccc1 (stereo unspecified)
20 | 7.64 | 4.91 | 4.30 | < 4.00 | 5.14 |  |  |  | NC(=O)[C@H](NC(=O)c1cnc2ccc(-c3ccc4oc(N)nc4c3)cn12)c1ccccc1
21 | 8.14 | 5.64 | 5.15 | 4.91 | 5.27 |  |  |  | Nc1nc2cc(-c3ccc4ncc(C(=O)N5C[C@@H]6OCCO[C@@H]6C5)n4c3)ccc2o1
22 | 8.34 | 5.74 | 4.95 | 4.68 | 5.15 | 6.94 | 6.63 | 6.09 | C[C@H](NC(=O)c1cnc2ccc(-c3ccc4oc(N)nc4c3)cn12)C(N)=O
23 | < 5.00 | < 4.00 | < 4.00 | < 4.00 | < 4.00 |  |  |  | CCOC(=O)[C@H](C)NC(=O)c1cnc2ccc(-c3ccc4oc(N)nc4c3)cn12
24 | 7.55 | 5.47 | 4.50 | < 4.00 | 5.39 |  |  |  | CN(C)C1CCN(C(=O)c2cnc3ccc(-c4ccc5oc(N)nc5c4)cn23)CC1
25 | < 5.00 | 4.44 | < 4.00 | < 4.00 | < 4.00 |  |  |  | C[C@@H](NC(=O)c1cnc2ccc(-c3ccc4oc(N)nc4c3)cn12)C(N)=O
26 | 7.85 | 5.01 | 4.77 | 4.68 | 5.03 |  |  |  | NC(=O)[C@@H](NC(=O)c1cnc2ccc(-c3ccc4oc(N)nc4c3)cn12)c1ccccc1
